The values below come from patent publication US4263295A, “Psychoactive 3-(1-2-diarylethyl)-1,4,5,6-tetrahydro-1,2,4-triazines and their method of use” (The Dow Chemical Company, priority 1977, dated 1981).

The subject of assay [1] is anxiety. Briefly: Antianxiety activity, test not specified (background and summary statements). In kind it is in vivo. To be noted: test not stated.
In assay [2] the test system is depression. Conditions: U.S. Pat. No. 3,471,486; Journal of Medicinal Chemistry, 12, 257 (1969); cited from earlier work.
Assay [3] deals with serum corticosteroid levels. In words: Block of stress-induced rise of serum corticosteroid levels (antianxiety). Type of assay: in vivo. To be noted: stressed male rats, 20 mg/kg i.p.; for response vs control in vivo at 20 mg/kg: Rattus norvegicus, ip, saline control 100, values below 100% are indicative of activity, read-out: Serum Corticosteroid Levels μg %. The protocol:
See British Medical Journal, 1971 (2), p. 310-313. Corticosteroid levels were compared between stressed male rats pretreated with 20 mg/kg of the active compound given by intraperitoneal injection to corticosteroid levels of stressed male rats pretreated with saline. Blood (3 ml) was collected by means of cardiac puncture after methoxyflurane anesthesia. Following clotting, the blood was centrifuged to separate the serum for use in the corticosteroid analysis. The analysis was carried out by adding 5 ml of methylene chloride to 300 μl of the serum sample and vortexing the sample for 15-20 seconds. The samples were then centrifuged at 41 xg for about 5 minutes. The lipid layer was removed by aspiration and 3 ml of the methylene chloride fraction was transferred to a clean tube. To this sample, 3 ml of fluorescence reagent (25% ethanol and 75% concentrated sulfuric acid) was added and vortexed for 5 seconds. Fluorescence development was complete in 20 minutes and was read on a Perkin-Elmer® fluorometer Model 204 at an exciter wavelength of 470 mμ and an analyzer wavelength of 530 mμ. This assay measures free cortisol and corticosterone. The corticosteroid values were calculated as follows: [formula] […] Values below 100% are indicative of activity.

In assay [4] the test system is reserpine-induced ptosis. In words: Protection against reserpine-induced ptosis (antidepressant). In kind it is in vivo. Conditions: Mus musculus; mice, 30 mg/kg i.p.; reserpine 2.5 mg/kg s.c. after 30 minutes; graded after 45 minutes; saline control 0. The protocol:
Groups of four mice were administered 30 mg/kg of the 3-(1,2-diarylethyl)-1,4,5,6-tetrahydro-1,2,4-triazine compounds by intraperitoneal injection via an aqueous carrier. A similar group of mice serving as controls were injected only with the carrier. After 30 minutes, both groups of mice were injected subcutaneously with 2.5 mg/kg of reserpine.
Animals injected with the triazine compound were graded after 45 minutes on the following basis: no ptosis=0, partial ptosis=1, complete ptosis=2. Complete protection against reserpine-induced ptosis gives a value of 0 or 100%.

Where a name gives a salt, the structure may show the parent alone.

Regarding `c1ccc(CC(C2=NNCCN2)c2ccccc2)cc1` (stereo not drawn) [3-(1,2-diphenylethyl)-1,4,5,6-tetrahydro-1,2,4-triazine], the “antianxiety activity of prior-art compound (in words)” value in assay [1] was “essentially inactive”. The “antidepressant activity of prior-art compound (in words)” value in assay [2] is listed as “antidepressant”.

`Cl.Fc1ccc(CC(C2=NNCCN2)c2ccccc2)cc1` (stereo not drawn) [Example 1, 3-(2-(4-fluorophenyl)-1-phenylethyl)-1,4,5,6-tetrahydro-1,2,4-triazine monohydrochloride]: in assay [3], the response vs control in vivo at 20 mg/kg amounted to 25% and the “antianxiety activity (in words, from Table II)” value is given as “especially active as antianxiety agents”. Moreover, the inhibition at 30 mg/kg in assay [4] came to 63%.

Consider `Cl.Clc1ccc(CC(C2=NNCCN2)c2ccccc2)cc1` (stereo not drawn) [Example 2, 3-(2-(4-Chlorophenyl)-1-phenylethyl)-1,4,5,6-tetrahydro-1,2,4-triazine monohydrochloride], for which, in assay [3], the response vs control in vivo at 20 mg/kg was 13% and the “antianxiety activity (in words, from Table II)” value was “especially active as antianxiety agents”. In assay [4], this compound registered an inhibition at 30 mg/kg of 88%.

As to `COc1ccc(C(Cc2ccc(F)cc2)C2=NNCCN2)cc1` (stereo not drawn) [Example 3, 3-(2-(4-Fluorophenyl)-1-(4-methoxyphenyl)ethyl)-1,4,5,6-tetrahydro-1,2,4-triazine monohydrochloride], the response vs control in vivo at 20 mg/kg in assay [3] amounted to 82%. This compound also showed an inhibition at 30 mg/kg in assay [4] of 38%.

For `Cc1ccc(C(Cc2ccccc2)C2=NNCCN2)cc1` (stereo not drawn) [Example 4, 3-(1-(4-Methylphenyl)-2-phenylethyl)-1,4,5,6-tetrahydro-1,2,4-triazine monohydrochloride], the response vs control in vivo at 20 mg/kg in assay [3] was 67%. In assay [4], this compound showed an inhibition at 30 mg/kg of 38%.

As for `Cc1cccc(CC(C2=NNCCN2)c2ccccc2)c1` (stereo not drawn) [Example 5], the response vs control in vivo at 20 mg/kg in assay [3] was found to be 32%. In assay [4], at 30 mg/kg the inhibition was 25%.

As to `Cc1ccc(CC(C2=NNCCN2)c2ccccc2)cc1` (stereo not drawn) [Example 6], in assay [3], the response vs control in vivo at 20 mg/kg came out at 62%. In assay [4], this compound came in with an inhibition at 30 mg/kg of 50%.

Consider `Clc1cccc(CC(C2=NNCCN2)c2ccccc2)c1` (stereo not drawn) [Example 7], for which, in assay [3], the response vs control in vivo at 20 mg/kg was determined as 75%. In assay [4], this compound returned an inhibition at 30 mg/kg of 88%.

In the case of `Cc1cccc(C(Cc2ccccc2)C2=NNCCN2)c1` (stereo not drawn) [Example 8], the response vs control in vivo at 20 mg/kg in assay [3] stood at 52%. For the same compound, the inhibition at 30 mg/kg in assay [4] was found to be 38%.

Turning to `c1ccc(CC(C2=NNCCN2)c2ccc3c(c2)OCO3)cc1` (stereo not drawn) [Example 9], in assay [3], the response vs control in vivo at 20 mg/kg was 33% and the “antianxiety activity (in words, from Table II)” value was “especially active as antianxiety agents”. In assay [4], the inhibition at 30 mg/kg turned out to be 50%.

Turning to `c1ccc(CC(C2=NNCCN2)c2ccc3ccccc3c2)cc1` (stereo not drawn) [Example 10, 3-(1-(2-Naphthalenyl)-2-phenylethyl)-1,4,5,6-tetrahydro-1,2,4-triazine monohydrochloride], the response vs control in vivo at 20 mg/kg in assay [3] was found to be 54%. Testing at 30 mg/kg in assay [4] gave an inhibition of 50%.

For `c1ccc(CC(C2=NNCCN2)c2cccc3ccccc23)cc1` (stereo not drawn) [Example 11], the response vs control in vivo at 20 mg/kg in assay [3] is 77%. Moreover, testing at 30 mg/kg in assay [4] gave an inhibition of 25%.

Take `Cc1ccc(CC(C2=NNCCN2)c2ccccc2)cc1C` (stereo not drawn) [Example 12]: in assay [3], the response vs control in vivo at 20 mg/kg turned out to be 33% and the “antianxiety activity (in words, from Table II)” value is recorded as “especially active as antianxiety agents”. In assay [4], the inhibition at 30 mg/kg was determined as 25%.

Consider `Clc1cccc(Cl)c1CC(C1=NNCCN1)c1ccccc1` (stereo not drawn) [Example 13, 3-(2-(2,6-Dichlorophenyl)-1-phenylethyl)-1,4,5,6-tetrahydro-1,2,4-triazine monohydrochloride], for which the response vs control in vivo at 20 mg/kg in assay [3] turned out to be 39%. In assay [4], this compound registered an inhibition at 30 mg/kg of 88%.

On to `Clc1ccc(CC(C2=NNCCN2)c2ccccc2)cc1Cl` (stereo not drawn) [Example 14], for which the response vs control in vivo at 20 mg/kg in assay [3] is 79%. In assay [4], this compound gave an inhibition at 30 mg/kg of 63%.

On to `c1ccc(C(Cc2cccc3ccccc23)C2=NNCCN2)cc1` (stereo not drawn) [Example 15], for which, in assay [3], the response vs control in vivo at 20 mg/kg amounted to 72%. Also, in assay [4], 30 mg/kg produced 13% inhibition.

With `c1ccc(C(Cc2ccc3ccccc3c2)C2=NNCCN2)cc1` (stereo not drawn) [Example 16], in assay [3], the response vs control in vivo at 20 mg/kg amounted to 39% and the “antianxiety activity (in words, from Table II)” value is listed as “especially active as antianxiety agents”. Further, the inhibition at 30 mg/kg in assay [4] was 42%.

As for `Fc1cccc(CC(C2=NNCCN2)c2ccccc2)c1` (stereo not drawn) [Example 17], the response vs control in vivo at 20 mg/kg in assay [3] was 62%. The same compound came in with an inhibition at 30 mg/kg in assay [4] of 25%.

Take `CN1CCNC(C(Cc2ccc(Cl)cc2)c2ccccc2)=N1` (stereo not drawn) [Example 18, 3-(2-(4-Chlorophenyl)-1-phenylethyl)-1,4,5,6-tetrahydro-1-methyl-1,2,4-triazine monohydrochloride]: the response vs control in vivo at 20 mg/kg in assay [3] amounted to 77%. Also, in assay [4], the inhibition at 30 mg/kg came to 50%.

On to `CC(=O)N1CCN(C)N=C1C(Cc1ccccc1)c1ccccc1` (stereo not drawn) [Example 19, 4-acetyl-3-(1,2-diphenylethyl)-1,4,5,6-tetrahydro-1-methyl-1,2,4-triazine monohydrochloride], for which the response vs control in vivo at 20 mg/kg in assay [3] came to 77%. The same compound showed an inhibition at 30 mg/kg in assay [4] of 13%.

A word on the inhibition: it is the percentage by which the read-out fell short of the control. Read a high inhibition as strong suppression.
